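Exposure lasted 48 hours, with cells grown in 96-well plates and compounds tested at five concentrations. GI50 = concentration required for 50% inhibition of growth.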 Active and inactive are the calls of the source. Cut-off read from the data, not from the text of the source: active = GI50 up to about 1.1 µM and inactive = higher.
Key:
Test in all cases: NCI tumour cell line growth inhibition, 48 h
A498 = test system: A498
RPMI-8226 = test system: RPMI-8226
OVCAR-4 = test system: OVCAR-4
SN12C = test system: SN12C
EKVX = test system: EKVX
SK-MEL-2 = test system: SK-MEL-2
OVCAR-3 = test system: OVCAR-3
UACC-257 = test system: UACC-257
KM12 = test system: KM12
SF-539 = test system: SF-539
SK-MEL-28 = test system: SK-MEL-28
SK-MEL-5 = test system: SK-MEL-5
786-0 = test system: 786-0
HCT-116 = test system: HCT-116
MOLT-4 = test system: MOLT-4
LOX IMVI = test system: LOX IMVI
Hs-578T = test system: Hs-578T
MDA-MB-435 = test system: MDA-MB-435
MDA-N = test system: MDA-N

Measured: GI50

N#CC(C(=O)C(=O)Nc1ccc(Cl)cc1)c1ccccc1 (stereo unspecified)
inactive: A498 > 100 µM | RPMI-8226 > 100 µM | OVCAR-4 > 100 µM | SN12C > 100 µM | EKVX > 100 µM | SK-MEL-2 > 100 µM | OVCAR-3 > 100 µM | UACC-257 > 100 µM | KM12 > 100 µM | SF-539 > 100 µM | SK-MEL-28 > 100 µM | SK-MEL-5 > 100 µM | 786-0 > 100 µM | HCT-116 > 100 µM | MOLT-4 > 100 µM | LOX IMVI > 100 µM

CCCCCCCCCCCCCCCCCCNc1ccn(C2OC(COP(=O)(O)OCCCCCCCCCCCCCCCC)C(O)C2O)c(=O)n1 (stereo unspecified)
inactive: A498 > 100 µM | RPMI-8226 > 100 µM | OVCAR-4 > 100 µM | SN12C > 100 µM | EKVX > 100 µM | SK-MEL-2 > 100 µM | OVCAR-3 > 100 µM | Hs-578T 83.8 µM | UACC-257 > 100 µM | KM12 > 100 µM | SF-539 > 100 µM | SK-MEL-28 > 100 µM | 786-0 > 100 µM | MDA-MB-435 > 100 µM | HCT-116 > 100 µM | MOLT-4 > 100 µM | LOX IMVI 82 µM

CC(=O)/C=C1/C(=O)C(CC(C)C)=C1CC(C)C
inactive: A498 > 100 µM | OVCAR-4 > 100 µM | SN12C > 100 µM | EKVX > 100 µM | SK-MEL-2 > 100 µM | Hs-578T > 100 µM | UACC-257 > 100 µM | KM12 > 100 µM | SF-539 > 100 µM | SK-MEL-28 > 100 µM | SK-MEL-5 > 100 µM | 786-0 > 100 µM | MDA-MB-435 > 100 µM | HCT-116 > 100 µM | MOLT-4 92.3 µM | MDA-N > 100 µM | LOX IMVI > 100 µM

COC(=O)/C(=N\NC(N)=O)C(C#N)c1ccccc1 (stereo unspecified)
inactive: A498 > 100 µM | RPMI-8226 > 100 µM | OVCAR-4 > 100 µM | SN12C > 100 µM | EKVX > 100 µM | SK-MEL-2 > 100 µM | OVCAR-3 > 100 µM | UACC-257 > 100 µM | KM12 > 100 µM | SF-539 > 100 µM | SK-MEL-28 > 100 µM | 786-0 > 100 µM | HCT-116 > 100 µM | MOLT-4 > 100 µM | LOX IMVI > 100 µM

Brc1ccc2c(C3CN[C@@H](c4c[nH]c5cc(Br)ccc45)CN3)c[nH]c2c1 (stereo partly specified)
inactive: A498 1.79 µM | RPMI-8226 1.89 µM | OVCAR-4 3.31 µM | SN12C 5.25 µM | EKVX 8.97 µM | SK-MEL-2 3.02 µM | OVCAR-3 6.03 µM | UACC-257 11.1 µM | KM12 1.72 µM | SF-539 3.99 µM | SK-MEL-28 11.3 µM | SK-MEL-5 3.67 µM | 786-0 2.89 µM | HCT-116 1.69 µM | MOLT-4 1.44 µM | LOX IMVI 2.61 µM

O=C(/C=C/c1ccc(O)c(O)c1)OC1C[C@@](O)(C(=O)O)C[C@@H](O)[C@H]1OC(=O)/C=C/c1ccc(O)c(O)c1 (stereo partly specified)
inactive: A498 > 100 µM | RPMI-8226 > 100 µM | OVCAR-4 > 100 µM | EKVX > 100 µM | SK-MEL-2 > 100 µM | OVCAR-3 > 100 µM | UACC-257 > 100 µM | KM12 > 100 µM | SF-539 > 100 µM | SK-MEL-28 > 100 µM | SK-MEL-5 > 100 µM | 786-0 > 100 µM | HCT-116 > 100 µM | MOLT-4 > 100 µM | LOX IMVI > 100 µM

COC(=O)CCC(=O)NC1C2CC3CC(C2)CC1C3 (stereo unspecified)
inactive: A498 > 100 µM | RPMI-8226 > 100 µM | OVCAR-4 > 100 µM | SN12C > 100 µM | EKVX > 100 µM | SK-MEL-2 > 100 µM | OVCAR-3 > 100 µM | UACC-257 > 100 µM | KM12 > 100 µM | SF-539 > 100 µM | SK-MEL-28 > 100 µM | SK-MEL-5 > 100 µM | 786-0 > 100 µM | HCT-116 > 100 µM | MOLT-4 > 100 µM | LOX IMVI > 100 µM

Cc1cn(CC2=NCC(O)CN2)c(=O)[nH]c1=O (stereo unspecified)
inactive: A498 > 100 µM | RPMI-8226 > 100 µM | OVCAR-4 > 100 µM | SN12C > 100 µM | EKVX > 100 µM | SK-MEL-2 > 100 µM | OVCAR-3 > 100 µM | UACC-257 > 100 µM | KM12 > 100 µM | SF-539 > 100 µM | SK-MEL-28 > 100 µM | SK-MEL-5 > 100 µM | 786-0 > 100 µM | MDA-MB-435 > 100 µM | HCT-116 > 100 µM | MOLT-4 > 100 µM | MDA-N > 100 µM | LOX IMVI > 100 µM

Cc1c2ccccc2cc2ccc3oc([N+](=O)[O-])cc3c12
inactive: A498 5.6 µM | RPMI-8226 > 100 µM | OVCAR-4 > 100 µM | SN12C > 100 µM | EKVX 81.7 µM | SK-MEL-2 5.47 µM | OVCAR-3 > 100 µM | UACC-257 > 100 µM | KM12 > 100 µM | SF-539 > 100 µM | SK-MEL-5 3.18 µM | 786-0 > 100 µM | HCT-116 > 100 µM | MOLT-4 > 100 µM | LOX IMVI > 100 µM

CC(C)Oc1c(O)c2c3c(oc(=O)n3C=CC2c2ccccc2)c1OC(C)C (stereo unspecified)
inactive: OVCAR-4 24.6 µM | SN12C 36.5 µM | EKVX 22.3 µM | SK-MEL-2 15.7 µM | OVCAR-3 21.5 µM | UACC-257 25.1 µM | KM12 21.5 µM | SF-539 19.7 µM | SK-MEL-28 22.5 µM | SK-MEL-5 32.3 µM | 786-0 36.1 µM | MDA-MB-435 > 10 µM | HCT-116 28.8 µM | MOLT-4 31 µM | MDA-N 36.3 µM | LOX IMVI 37.8 µM

CC(C)CC(=O)CC(C)[C@]1(CCCOCc2ccccc2)C(=O)N2CCC3(C[C@@]24CCC[C@H]41)OCCO3 (stereo partly specified)
inactive: A498 > 10 µM | RPMI-8226 > 10 µM | OVCAR-4 > 10 µM | SN12C > 10 µM | EKVX > 10 µM | SK-MEL-2 > 10 µM | OVCAR-3 > 10 µM | KM12 > 10 µM | SF-539 > 10 µM | SK-MEL-5 > 10 µM | 786-0 > 10 µM | MDA-MB-435 > 10 µM | MOLT-4 > 10 µM | MDA-N > 10 µM

CC1=C(C(=O)Nc2cc(F)c(F)cc2F)C(c2ccc([N+](=O)[O-])cc2)C(C(=O)Nc2cc(F)c(F)cc2F)=C(C)N1
inactive: A498 18.2 µM | RPMI-8226 14 µM | OVCAR-4 18.5 µM | SN12C 40.7 µM | EKVX 13.9 µM | SK-MEL-2 18 µM | OVCAR-3 19.1 µM | UACC-257 28.7 µM | KM12 29.3 µM | SF-539 29.3 µM | SK-MEL-28 42.7 µM | SK-MEL-5 23.6 µM | 786-0 42.7 µM | HCT-116 25.8 µM | MOLT-4 15 µM | LOX IMVI 80.2 µM

From ChEMBL document CHEMBL1201862, “PubChem BioAssay data set” (2004)
